Reference: ChEMBL document CHEMBL5252648, “Design, synthesis and bioactivity evaluation of a series of quinazolinone derivatives as potent PI3Kγ antagonist” (Bioorg Med Chem, 2023)
The source made the active and inactive calls. The calls are words filed in the database; no cut-off is given here.

What was measured:
[1] = biological target: T1, Phosphatidylinositol 4,5-bisphosphate 3-kinase catalytic subunit delta isoform (Homo sapiens, UniProt O00329); assay: Antagonist activity at PI3Kdelta (unknown origin) using PIP2 as substrate in presence of ATP incubated for 30 to 60 mins by ADP-glo based luminescence assay
T1 sequence (O00329 whole entry): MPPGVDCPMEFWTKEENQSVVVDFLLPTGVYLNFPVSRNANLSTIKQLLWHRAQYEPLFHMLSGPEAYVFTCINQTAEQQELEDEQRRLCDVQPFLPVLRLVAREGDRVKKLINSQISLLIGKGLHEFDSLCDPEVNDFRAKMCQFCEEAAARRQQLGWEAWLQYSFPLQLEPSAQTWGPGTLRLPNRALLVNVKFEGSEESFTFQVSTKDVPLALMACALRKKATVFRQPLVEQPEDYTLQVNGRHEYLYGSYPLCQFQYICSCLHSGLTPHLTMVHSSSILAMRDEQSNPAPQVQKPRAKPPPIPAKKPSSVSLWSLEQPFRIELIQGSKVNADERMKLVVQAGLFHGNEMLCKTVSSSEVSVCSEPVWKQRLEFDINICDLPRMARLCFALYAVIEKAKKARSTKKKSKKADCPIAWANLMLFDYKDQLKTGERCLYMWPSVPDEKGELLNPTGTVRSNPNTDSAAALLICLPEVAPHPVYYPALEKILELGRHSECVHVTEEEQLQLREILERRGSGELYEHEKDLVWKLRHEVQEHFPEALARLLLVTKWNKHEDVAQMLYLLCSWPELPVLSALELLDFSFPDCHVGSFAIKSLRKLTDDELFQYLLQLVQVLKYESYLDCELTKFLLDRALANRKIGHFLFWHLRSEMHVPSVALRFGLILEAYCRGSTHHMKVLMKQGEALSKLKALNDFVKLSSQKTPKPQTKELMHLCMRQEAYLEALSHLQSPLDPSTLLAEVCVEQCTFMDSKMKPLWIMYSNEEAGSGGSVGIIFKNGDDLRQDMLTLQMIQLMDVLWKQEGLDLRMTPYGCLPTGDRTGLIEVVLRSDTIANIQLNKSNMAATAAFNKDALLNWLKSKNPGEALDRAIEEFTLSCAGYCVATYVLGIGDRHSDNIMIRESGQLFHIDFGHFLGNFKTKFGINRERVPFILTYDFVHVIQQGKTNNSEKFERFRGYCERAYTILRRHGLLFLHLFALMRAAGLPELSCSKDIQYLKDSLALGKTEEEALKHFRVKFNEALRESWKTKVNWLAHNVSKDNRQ

[2] = biological target: Phosphatidylinositol 4,5-bisphosphate 3-kinase catalytic subunit beta isoform (Homo sapiens, UniProt P42338); assay: Antagonist activity at PI3Kbeta (unknown origin) using PIP2 as substrate in presence of ATP incubated for 30 to 60 mins by ADP-glo based luminescence assay
Chain of Phosphatidylinositol 4,5-bisphosphate 3-kinase catalytic subunit beta isoform (P42338 whole entry, canonical isoform): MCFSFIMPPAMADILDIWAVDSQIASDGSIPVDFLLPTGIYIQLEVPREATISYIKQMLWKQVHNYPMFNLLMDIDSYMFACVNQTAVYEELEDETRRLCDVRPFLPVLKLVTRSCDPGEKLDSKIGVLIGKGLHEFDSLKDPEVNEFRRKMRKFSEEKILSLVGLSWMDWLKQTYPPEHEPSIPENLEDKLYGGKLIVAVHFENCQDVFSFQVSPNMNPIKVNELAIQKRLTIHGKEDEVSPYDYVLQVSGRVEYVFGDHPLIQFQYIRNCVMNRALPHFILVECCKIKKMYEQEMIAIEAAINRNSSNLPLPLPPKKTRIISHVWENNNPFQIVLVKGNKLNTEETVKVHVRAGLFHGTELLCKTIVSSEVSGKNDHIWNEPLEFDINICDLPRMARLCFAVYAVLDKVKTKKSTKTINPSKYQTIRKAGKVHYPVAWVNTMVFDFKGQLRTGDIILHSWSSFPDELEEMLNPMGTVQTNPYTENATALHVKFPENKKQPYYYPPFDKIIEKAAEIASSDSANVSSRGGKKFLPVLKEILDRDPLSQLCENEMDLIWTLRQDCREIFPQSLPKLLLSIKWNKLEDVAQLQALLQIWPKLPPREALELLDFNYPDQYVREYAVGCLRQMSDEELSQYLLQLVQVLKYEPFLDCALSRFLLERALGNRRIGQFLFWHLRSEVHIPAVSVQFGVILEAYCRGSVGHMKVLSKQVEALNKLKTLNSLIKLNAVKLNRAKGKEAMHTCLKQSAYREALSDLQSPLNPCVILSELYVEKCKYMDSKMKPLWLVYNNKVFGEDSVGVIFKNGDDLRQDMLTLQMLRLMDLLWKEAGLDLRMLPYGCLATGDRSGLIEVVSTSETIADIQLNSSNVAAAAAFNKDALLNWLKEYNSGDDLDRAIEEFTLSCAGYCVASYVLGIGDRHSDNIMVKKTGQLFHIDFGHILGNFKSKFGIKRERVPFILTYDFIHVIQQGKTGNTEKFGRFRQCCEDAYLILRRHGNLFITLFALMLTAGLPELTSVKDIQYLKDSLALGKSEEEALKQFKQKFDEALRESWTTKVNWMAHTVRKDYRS

[3] = test system: Jurkat; assay: Cytotoxicity against human Jurkat cells assessed as reduction in cell viability incubated for 24 hrs by CCK-8 assay; format: functional, cell-based
[4] = test system: THP-1; assay: Cytotoxicity against human THP-1 cells assessed as reduction in cell viability incubated for 24 hrs by CCK-8 assay; format: functional, cell-based; details: THP-1, 24 h
[5] = test system: 4T1; assay: Cytotoxicity against mouse 4T1 cells assessed as reduction in cell viability incubated for 24 hrs by CCK-8 assay; format: functional, cell-based; details: 4T1, 24 h
[6] = test system: T47D; assay: Cytotoxicity against human T47D cells assessed as reduction in cell viability incubated for 24 hrs by CCK-8 assay; format: functional, cell-based
[7] = test system: HepG2; assay: Cytotoxicity against human HepG2 cells assessed as reduction in cell viability incubated for 24 hrs by CCK-8 assay; format: functional, cell-based; details: HepG2, 24 h
[8] = test system: MCF7; assay: Cytotoxicity against human MCF7 cells assessed as reduction in cell viability incubated for 24 hrs by CCK-8 assay; format: functional, cell-based; details: MCF7, 24 h
[9] = test system: Huh-7; assay: Cytotoxicity against human Huh-7 cells assessed as reduction in cell viability incubated for 24 hrs by CCK-8 assay; format: functional, cell-based; details: Huh-7, 24 h
[10] = test system: Jurkat; assay: Induction of apoptosis against human Jurkat cells assessed as viable cells at 0.1 uM measured for 24 hrs by Annexin V-FITC/propidium iodide staining based flow cytometry (reference value: 94.2 %); format: functional; details: read-out: Activity
[11] = test system: Jurkat; assay: Induction of apoptosis against human Jurkat cells assessed as early apoptotic cells at 0.1 uM measured for 24 hrs by Annexin V-FITC/propidium iodide staining based flow cytometry (reference value: 5.76%); format: functional
[12] = test system: Jurkat; assay: Induction of apoptosis against human Jurkat cells assessed as late apoptotic cells at 1 uM measured for 24 hrs by Annexin V-FITC/propidium iodide staining based flow cytometry (reference value: 0.00%); format: functional
[13] = test system: Jurkat; assay: Induction of apoptosis against human Jurkat cells assessed as viable cells at 10 uM measured for 24 hrs by Annexin V-FITC/propidium iodide staining based flow cytometry (reference value: 94.2 %); format: functional; details: read-out: Activity
[14] = test system: Jurkat; assay: Induction of apoptosis against human Jurkat cells assessed as early apoptotic cells at 10 uM measured for 24 hrs by Annexin V-FITC/propidium iodide staining based flow cytometry (reference value: 5.76%); format: functional
[15] = test system: THP-1; assay: Induction of apoptosis against human THP-1 cells assessed as viable cells at 0.1 uM measured for 24 hrs by Annexin V-FITC/propidium iodide staining based flow cytometry (reference value: 85.6%); format: functional; details: read-out: Activity
[16] = test system: THP-1; assay: Induction of apoptosis against human THP-1 cells assessed as late apoptotic cells at 0.1 uM measured for 24 hrs by Annexin V-FITC/propidium iodide staining based flow cytometry (reference value: 3.70%); format: functional
[17] = test system: RAW264.7; assay: Inhibition of AKT phosphorylation in mouse RAW264.7 cells incubated for 1 to 12 hrs by Western blot analysis relative to control; format: cell-based; details: dose 0.1-10 µM, time 1-12 hrs
[18] = biological target: Serine/threonine-protein kinase AKT (Homo sapiens) (UniProt P31751+Q9Y243+P31749); assay: Inhibition of AKT phosphorylation in human Jurkat cells incubated for 1 to 12 hrs by Western blot analysis relative to control; format: cell-based; details: dose 0.1-10 µM, time 1-12 hrs
Chain of Serine/threonine-protein kinase AKT (Homo sapiens) (P31749 whole entry, looked up): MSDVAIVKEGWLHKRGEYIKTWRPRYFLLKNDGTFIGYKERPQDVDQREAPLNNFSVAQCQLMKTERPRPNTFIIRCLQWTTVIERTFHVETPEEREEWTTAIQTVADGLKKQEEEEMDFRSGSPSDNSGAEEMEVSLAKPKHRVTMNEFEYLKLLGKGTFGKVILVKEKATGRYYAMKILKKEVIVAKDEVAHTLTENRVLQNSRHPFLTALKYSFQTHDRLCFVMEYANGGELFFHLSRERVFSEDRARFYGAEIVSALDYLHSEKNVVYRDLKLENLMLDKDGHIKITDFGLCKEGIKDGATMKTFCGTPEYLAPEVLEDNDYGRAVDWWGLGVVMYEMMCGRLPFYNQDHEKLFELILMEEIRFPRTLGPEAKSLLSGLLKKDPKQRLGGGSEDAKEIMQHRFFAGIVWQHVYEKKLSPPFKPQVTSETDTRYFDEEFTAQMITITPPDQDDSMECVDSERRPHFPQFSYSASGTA
Chain of Serine/threonine-protein kinase AKT (Homo sapiens) (P31751 whole entry, looked up): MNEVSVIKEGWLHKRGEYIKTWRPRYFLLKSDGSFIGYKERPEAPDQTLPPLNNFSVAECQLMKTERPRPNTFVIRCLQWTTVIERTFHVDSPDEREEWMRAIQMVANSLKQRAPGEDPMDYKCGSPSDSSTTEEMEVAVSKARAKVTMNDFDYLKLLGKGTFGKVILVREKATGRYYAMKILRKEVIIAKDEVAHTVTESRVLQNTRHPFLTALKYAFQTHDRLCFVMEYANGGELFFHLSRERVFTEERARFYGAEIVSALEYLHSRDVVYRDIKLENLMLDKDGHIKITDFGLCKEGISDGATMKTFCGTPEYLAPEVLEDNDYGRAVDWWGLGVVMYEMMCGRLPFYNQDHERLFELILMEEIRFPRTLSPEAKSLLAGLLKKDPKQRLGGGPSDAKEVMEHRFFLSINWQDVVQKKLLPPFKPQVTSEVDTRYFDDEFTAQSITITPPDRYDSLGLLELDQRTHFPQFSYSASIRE
Chain of Serine/threonine-protein kinase AKT (Homo sapiens) (Q9Y243 whole entry, looked up): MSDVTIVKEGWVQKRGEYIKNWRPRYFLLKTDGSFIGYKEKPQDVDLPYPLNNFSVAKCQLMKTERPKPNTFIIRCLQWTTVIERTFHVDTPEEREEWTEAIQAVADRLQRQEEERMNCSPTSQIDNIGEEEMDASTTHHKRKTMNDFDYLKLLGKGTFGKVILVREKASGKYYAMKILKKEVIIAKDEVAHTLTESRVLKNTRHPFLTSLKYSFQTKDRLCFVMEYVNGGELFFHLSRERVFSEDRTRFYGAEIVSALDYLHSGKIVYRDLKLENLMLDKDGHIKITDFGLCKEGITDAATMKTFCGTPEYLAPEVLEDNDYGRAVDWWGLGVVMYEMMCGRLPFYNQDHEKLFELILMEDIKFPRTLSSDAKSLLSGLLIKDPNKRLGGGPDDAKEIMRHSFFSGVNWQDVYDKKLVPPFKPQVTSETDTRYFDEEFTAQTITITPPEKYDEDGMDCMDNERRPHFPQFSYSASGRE

[19] = test system: Jurkat; assay: Upregulation of phosphorylated ERK1/2 protein expression in human Jurkat cells measured for 3 hrs; format: functional, cell-based; details: dose 0.1-10 µM
[20] = test system: Jurkat; assay: Upregulation of phosphorylated ERK1/2 protein expression in human Jurkat cells at 10 uM measured for 3 hrs; format: functional, cell-based
[21] = test system: THP-1; assay: Induction of apoptosis against human THP-1 cells assessed as viable cells at 1 uM measured for 24 hrs by Annexin V-FITC/propidium iodide staining based flow cytometry (reference value: 85.6%); format: functional; details: read-out: Activity
[22] = test system: THP-1; assay: Induction of apoptosis against human THP-1 cells assessed as necrotic cells at 1 uM measured for 24 hrs by Annexin V-FITC/propidium iodide staining based flow cytometry (reference value: 0.316%); format: functional
[23] = test system: THP-1; assay: Induction of apoptosis against human THP-1 cells assessed as viable cells at 10 uM measured for 24 hrs by Annexin V-FITC/propidium iodide staining based flow cytometry (reference value: 85.6%); format: functional; details: read-out: Activity
[24] = test system: THP-1; assay: Induction of apoptosis against human THP-1 cells assessed as early apoptotic cells at 10 uM measured for 24 hrs by Annexin V-FITC/propidium iodide staining based flow cytometry (reference value: 10.3%); format: functional
[25] = test system: THP-1; assay: Induction of apoptosis against human THP-1 cells assessed as late apoptotic cells at 10 uM measured for 24 hrs by Annexin V-FITC/propidium iodide staining based flow cytometry (reference value: 3.70%); format: functional

IC50 [1]: 0.0131 µM
IC50 [2]: 0.109 µM
inhibition [18]: Dose-Dependent Effect
Compound: COc1ccc(C#Cc2cccc3cc(C(C)Nc4ncnc5[nH]cnc45)n(-c4ccccc4)c(=O)c23)cc1 (stereo not given)
IC50 [3]: 2.41 µM
IC50 [4]: 7.47 µM
IC50 [5]: 9.76 µM
IC50 [6]: > 100 µM
IC50 [7]: > 100 µM
IC50 [8]: > 100 µM
IC50 [9]: 5.05 µM
viability at 0.1 µM [10]: 66.8%
Activity [11]: 10.9%
Activity [12]: 0.042%
viability at 10 µM [13]: 30.2%
Activity [14]: 69.7%
viability at 0.1 µM [15]: 66.8%
Activity [16]: 7.85%
inhibition [17]: Dose-Dependent Effect
Activity [19]: Dose-Dependent Effect
Activity [20]: Active
viability at 1 µM [21]: 59.6%
Activity [22]: 0.041%
viability at 10 µM [23]: 60.7%
Activity [24]: 24.6%
Activity [25]: 14.6%
